Tests used:
[1] = system: patients with schizophrenia; assay: Clinical data: case reports (Cases 1 to 6) of schizophrenic patients on neuroleptics, L-Dopa and TRH; format: in vivo, human
Description: The following clinical data as well as Examples are only for illustrative purposes and are not at all intended to limit or to restrict the scope of the invention.
On April 14, they came back to their home town and, on the following day, was admitted to hospital.
On July 10, TRH tartrate monohydrate 4 mg. (2.73 mg. in terms of free TRH) per day (2 mg. each in the morning and night) began to be administered orally in combination with thioridazine, 50 mg. per day, and trihexyphenydyl 6 mg. per day. […] On July 31, the administration of TRH was stopped.
In February 1961, the patient was admitted for the first time to Y hospital in a state of catatonic stupor. After receiving electroshock therapy and chlorpromazine, they were discharged from the hospital on April 19 of the same year. On May 26, 1966 they were again admitted to the same hospital this time in a state of catatonic excitement. […] Beginning on April 3, 1971, thioridazine, 300 mg. per day, and L-Dopa, 400 mg. daily, were added to the therapeutic regime. […] From the 9th day on, the dosage of L-Dopa was increased to 600 mg. daily. […] At the 19th week, the dosage of L-Dopa was reduced to 400 mg. and the drug was discontinued that week-end.
Hospital therapy was started with chlorpromazine, 400 mg. per day, and spiperone, 1 mg. per day. […] Consequently, the dosage of chlorpromazine was raised to 500 mg. per day. […] Beginning on August 9, penfluridol, 20 to 40 mg. twice weekly, was added to the preceding regimen of chlorpromazine 500 mg. daily. On June 26, 1973, the dosage of chlorpromazine was reduced to 200 mg. per day. Shortly thereafter, L-Dopa, 100 mg. daily, was added to the regimen from July 5 on. The dosage of L-Dopa was then increased gradually up to 600 mg. per day and finally discontinued on August 30.
On July 2, 1974, they were started on clocapramine, 75 mg. daily, to which TRH tartrate monohydrate, 4 mg. (2.73 mg. in terms of free TRH) daily, was orally added from July 29 on.

[2] = system: patients with schizophrenia; assay: as above; format: in vivo, human; remark: listed apart in the source
[3] = system: psychotic patients / patients with schizophrenia; conditions: cited from earlier work
[4] = system: psychotic patients / patients with schizophrenia; format: in vivo, human
Excerpt: L-Pyroglutamyl-L-histidyl-L-prolinamide (thyrotropin-releasing hormone; hereinafter referred to as TRH) is a hypothalamic hormone which can be synthesized chemically and has been used as a diagnostic agent or as an antidepressant. […] It is known, however, that, although the onset of the effect of TRH on psychotic patients is very rapid, the duration of its effects is rather short. Thus, TRH alone cannot be a practical remedy for psychotic patients.
On the other hand, according to the present invention, a deterioration of the patients considered to be caused by TRH in the combined use is negligible and, therefore, determination of the dose is very easy.
Furthermore, although the effect of TRH on pyschotic patients is known to be transient, t therapeutic effects in accordance with the present invention last long even after withdrawal of TRH or its physiologically acceptable salts, alone or together with neuroleptics, which are administered to patients in combination. In this way, long lasting therapeutic effects, as well as the rapid onset of the effects are another excellent characteristic of this invention.

CN(C)CCCN1c2ccccc2Sc2ccc(Cl)cc21 [chlorpromazine, Chlorpromazine]
Clinical outcome, Case 2, chlorpromazine with spiperone ([1]; chlorpromazine 400 mg per day and spiperone 1 mg per day, other symptoms virtually unaffected): their negativism and psychomotor excitement seemed to disappear almost completely
Clinical outcome, Case 4, oral chlorpromazine ([2]; person, initial 100 mg daily, gradually increasing dose): without result

O=C(CCCN1CCC(O)(c2ccc(Cl)cc2)CC1)c1ccc(F)cc1 [Haloperidol]
Clinical outcome, Case 4, haloperidol ([2]; 4 mg daily initially, increased up to 100 mg): failed to elicit any appreciable symptomatic response

NC(=O)[C@@H]1CCCN1C(=O)[C@H](Cc1cnc[nH]1)NC(=O)[C@@H]1CCC(=O)N1 [TRH, L-Pyroglutamyl-L-histidyl-L-prolinamide]
Effect of TRH alone in patients with schizophrenia ([3]; The Lancet, July 7, 1973, pages 43 and 44): produce emotional warmth, lucidity of though and accessibility of psychotherapy
Duration of effects of TRH alone ([3]; psychotic patients): rather short
Onset of effect of TRH alone ([3]; psychotic patients): very rapid
Time remission maintained after withdrawal of TRH, Case 2 ([1]; on clocapramine 75 mg daily alone, remission maintained most of the time): 4 months
Deterioration of the patients considered to be caused by TRH in the combined use ([4]; human, in vivo): negligible
Persistence of remission after withdrawal of TRH, Case 1 ([2]; TRH stopped July 31, other drugs continued): His state of remission has been maintained until now
Persistence of improvement after withdrawal of TRH, Case 5 ([2]; TRH stopped on 15th day): the improvement has continued even after withdrawal of TRH
Clinical outcome, Case 3, TRH with thioridazine ([2]; TRH tartrate monohydrate 8 mg daily (5.46 mg free TRH) orally with thioridazine 200 mg daily for two weeks, from 4th day): Their participation in work and recreational activities became more positive and their action became more agile than when they were placed on L-Dopa
Onset of subjective effect, Case 6 ([2]; i.v. TRH, patient felt light in the head and free from depressed feeling): One hour after the first injection
Persistence of effect of TRH therapy after discontinuation, Case 3 ([2]; on thioridazine alone): two
Clinical outcome, Case 6, intravenous TRH with neuroleptics ([2]; person, 730 μg TRH tartrate monohydrate (500 μg free TRH)/day i.v., 5 injections, with perphenazine 12 mg/day, diazepam 10 mg/day, vegetamim B 1 tablet/day): Remarkable improvement in the symptoms was recognized subjectively as well as objectively

N[C@@H](Cc1ccc(O)c(O)c1)C(=O)O [L-Dopa, L-3,4-dihydroxyphenylalanine]
Clinical outcome, Case 2, L-Dopa with thioridazine (1971) ([1]; person, L-Dopa 400-600 mg daily with thioridazine 300 to 100 mg per day, 19th week): had no morbid experience and appeared to have a clear insight
Side-effects of L-Dopa in combined use ([4]; human, in vivo): an excessive does of L-Dopa results in the production of side-effects in the patients
Effect of L-Dopa in small doses with conventionally used neuroleptics ([4]; schizophrenia, observed by the present inventors): marked improvement of the overall clinical picture in schizophrenia
Clinical outcome, Case 3, L-Dopa with thioridazine ([2]; L-Dopa 300 mg daily with thioridazine 200 mg daily): their spontaneity increased to an extent greater than that achieved before
Clinical outcome, Case 2, L-Dopa therapy (1973) ([2]; L-Dopa 100 up to 600 mg per day added to chlorpromazine 200 mg per day and penfluridol, autism and abulia persisted): His general clinical picture improved to a considerable extent
Time condition remained the same after withdrawal of L-Dopa, Case 3 ([2]; after about 5 months of usage with thioridazine): about 4 months
Clinical outcome, Case 3, L-Dopa with chlorpromazine ([2]; person, L-Dopa 400 mg with chlorpromazine 300 mg per day, end of 3rd week): an appreciable improvement in their facial expression
Side effects, Case 3, L-Dopa 1000 mg daily ([2]; with chlorpromazine 300 mg per day): they seemed irritated to some extent and complained of sleeping trouble
Side effects, Case 3, L-Dopa 1200 mg ([2]; with chlorpromazine 300 mg per day, led to discontinuation): appearance of auditory hallucination
